Source: patent US20040097594A1 (priority 1998, published 2004)
Read-outs that look alike come from different tables or passages of the source.

Key:
[1] = biological target: HIV-1 protease (Human immunodeficiency virus type 1 group M subtype B, UniProt P04585); experiment: biochemical
[2] = test system: HIV-1 (strain IIIB); experiment: microbe, parasite or virus in culture; type: cell-based; conditions: Human immunodeficiency virus 1, 120 h; MT4 cells infected with HIV-1 strain IIIB, 5 days; lower line of each compound's entry; read-out: IC50 (MT-4 cells)
[3] = HIV-1 protease, upper line of each compound's entry, read-out: Ki (enzyme)

| Structure (SMILES) | Ki [1, 3] [nM] | IC50 [2] [nM] | Ki [1] [nM] |
| --- | --- | --- | --- |
| CCC(C)ON(C[C@@H](O)[C@H](Cc1ccccc1)NC(=O)OC1CO[C@H]2OCC[C@@H]12)S(=O)(=O)c1ccc(OC)cc1 (stereo partly drawn) [Compound 68, (3R,3aS,6aR)hexahydrofuro[2,3-b]furan-3-yl N-((1S,2R)-1-benzyl-3-sec-butoxy[(4-methoxyphenyl)sulfonyl]amino-2-hydroxypropyl)carbamate] | < 1 | ≤ 100 |  |
| COc1ccc(S(=O)(=O)N(C[C@@H](O)[C@H](Cc2ccccc2)NC(=O)OC2CO[C@H]3OCC[C@@H]23)OC2CCCCC2)cc1 (stereo partly drawn) [Compound 134, (3R,3aS,6aR)hexahydrofuro[2,3-b]furan-3-yl N-((1S,2R)-1-benzyl-3-(cyclohexyloxy)[(4-methoxyphenyl)sulfonyl]amino-2-hydroxypropyl)carbamate] |  | ≤ 100 | < 1 |
| CC(C)ON(C[C@@H](O)[C@H](Cc1ccccc1)NC(=O)O[C@H]1CO[C@H]2OCC[C@H]21)S(=O)(=O)c1cccc(N(C)C(=O)OC(C)(C)C)c1 [Compound 126] | > 100 | > 1000 |  |
| CCC(CC)ON(C[C@@H](O)[C@H](Cc1ccccc1)NC(=O)OC(C)(C)C)S(=O)(=O)c1ccc(OC)cc1 [Example 161, tert-butyl(1S,2R)-1-benzyl-3-{(1-ethylpropoxy)[(4-methoxyphenyl)sulfonyl]amino}-2-hydroxypropylcarbamate] | 1 to 10 | > 1000 |  |
| COc1ccc(S(=O)(=O)N(C[C@@H](O)[C@H](Cc2ccccc2)NC(=O)OC(C)(C)C)OC2CCCCC2)cc1 [Compound 23, tert-butyl N-((1S,2R)-1-benzyl-3-(cyclohexyloxy)[(4-methoxyphenyl)sulfonyl]amino-2-hydroxypropyl)carbamate] |  | > 1000 | 1 to 10 |
| COC(=O)Nc1nc2cc(S(=O)(=O)N(C[C@@H](O)[C@H](Cc3ccccc3)NC(=O)O[C@H]3CCOC3)OC3CCCC3)ccc2[nH]1 [Compound 53, (3S)Tetrahydro-3-furanyl N-(1S,2R)-1-benzyl-3-[(cyclopentyloxy)(2-[(methoxycarbonyl)amino]-1H-benzimidazol-5-ylsulfonyl)amino]-2-hydroxypropylcarbamate] | < 1 | ≤ 100 |  |
| COc1ccc(S(=O)(=O)N(C[C@@H](O)[C@H](Cc2ccccc2)NC(=O)OCc2cccnc2)OC2CCCC2)cc1 [Compound 25, 3-pyridylmethyl N-((1S,2R)-1-benzyl-3-(cyclopentyloxy)[(4-methoxyphenyl)sulfonyl]amino-2-hydroxypropyl)carbamate] | < 1 | 500 to 1000 |  |
| COc1ccc(S(=O)(=O)N(C[C@@H](O)[C@H](Cc2ccccc2)NC(=O)O[C@H]2CCOC2)OC2CCOCC2)cc1 [Compound 72, (3S)tetrahydro-3-furanyl N-(1S,2R)-1-benzyl-2-hydroxy-3-[[(4-methoxyphenyl)sulfonyl](tetrahydro-2H-pyran-4-yloxy)amino]propylcarbamate] | 1 to 10 | 500 to 1000 |  |
| CNC(=O)CNC(=O)NCCNc1cccc(S(=O)(=O)N(CC(O)C(Cc2ccccc2)NC(=O)OC2COC3OCCC23)OC2CCCC2)c1 [Example 167, (3R,3aS,6aR)hexahydrofuro[2,3-b]furan-3-yl N-[(1S,2R)-1-benzyl-3-((cyclopentyloxy)[3-([(2-[methylamino]-2-oxoethylamino)carbonylamino]ethylamino)phenyl]sulfonylamino)-2-hydroxypropyl]carbamate and (3S,3aR,6aS)hexahydrofuro[2,3-b]furan-3-yl N-[(1S,2R)-1-benzyl-3-((cyclopentyloxy)[3-([2-[methylamino)-2-oxoethylamino)carbonylamino]ethylamino)phenyl]sulfonylamino)-2-hydroxypropyl]carbamate] | < 1 | 100 to 500 |  |
| COc1ccc(S(=O)(=O)N(C[C@@H](O)[C@H](Cc2ccccc2)NC(=O)c2ccccc2C)OC2CCCC2)cc1 [Compound 26, N^1-((1S,2R)-1-benzyl-3-(cyclopentyloxy)[(4-methoxyphenyl)sulfonyl]amino-2-hydroxypropyl)-2-methylbenzamide] | 1 to 10 | > 1000 |  |
| COc1ccc(S(=O)(=O)N(C[C@@H](O)[C@H](Cc2ccccc2)NC(=O)OC(C)(C)C)OCC2CCCCC2)cc1 [Compound 16, tert-butyl N-((1S,2R)-1-benzyl-3-(cyclohexylmethoxy)[(4-methoxyphenyl)sulfonyl]amino-2-hydroxypropyl)carbamate] | 10 to 100 | > 1000 |  |
| COc1ccc(S(=O)(=O)N(C[C@@H](O)[C@H](Cc2ccccc2)NC(=O)OC(C)(C)C)Oc2ccccc2)cc1 [Compound 17, tert-butyl N-(1S,2R)-1-benzyl-2-hydroxy-3-[[(4-methoxyphenyl)sulfonyl](phenoxy)amino]propylcarbamate] | 10 to 100 | > 1000 |  |
| COCOc1ccc(S(=O)(=O)N(C[C@@H](O)[C@H](Cc2ccccc2)NC(=O)OC(C)(C)C)OC2CCCC2)cc1 [Compound 109, tert-butyl N-((1S,2R)-1-benzyl-3-(cyclopentyloxy)[(4-methoxymethoxyphenyl)sulfonyl]amino-2-hydroxypropyl)carbamate] | 10 to 100 | ≥ 100 |  |
| COc1ccc(S(=O)(=O)N(C[C@@H](O)[C@H](Cc2ccccc2)NC(=O)O[C@H]2CCOC2)OC2CCCC2)cc1 [Compound 47, (3S)tetrahydro-3-furanyl N-((1S,2R)-1-benzyl-3-(cyclopentyloxy)[(4-methoxyphenyl)sulfonyl]amino-2-hydroxypropyl)carbamate] | < 1 | 500 to 1000 |  |
| O=C(N[C@@H](Cc1ccccc1)[C@H](O)CN(OC1CCCC1)S(=O)(=O)c1ccc2c(c1)OCCO2)OC1CO[C@H]2OCC[C@@H]12 (stereo partly drawn) [Compound 139, (3R,3aS,6aR)hexahydrofuro[2,3-b]furan-3-yl N-(1S,2R)-1-benzyl-3-[(cyclopentyloxy)(2,3-dihydro-1,4-benzodioxin-6-ylsulfonyl)amino]-2-hydroxypropylcarbamate] |  | ≤ 100 | < 1 |
| COc1ccc(S(=O)(=O)N(C[C@@H](O)[C@H](Cc2ccccc2)NC(=O)OC(C)(C)C)OCc2ccccc2)cc1 [Compound 21, tert-butyl N-((1S,2R)-1-benzyl-3-(benzyloxy)[(4-methoxyphenyl)sulfonyl]amino-2-hydroxypropyl)carbamate] | 10 to 100 | > 1000 |  |
| Nc1cccc(S(=O)(=O)N(C[C@@H](O)[C@H](Cc2ccccc2)NC(=O)O[C@H]2CO[C@H]3OCC[C@H]32)OC2CCCCC2)c1 [Compound 154, (3R,3aS,6aR)hexahydrofuro[2,3-b]furan-3-yl(1S,2R)-3-[[(3-aminophenyl)sulfonyl](cyclohexyloxy)amino]-1-benzyl-2-hydroxypropylcarbamate] | < 1 | ≤ 100 |  |
| COc1cccc(S(=O)(=O)N(C[C@@H](O)[C@H](Cc2ccccc2)NC(=O)O[C@H]2CO[C@H]3OCC[C@H]32)OC2CCCC2)c1 [Compound 123, (3R,3aS,6aR)hexahydrofuro[2,3-b]furan-3-yl N-[(1S,2R)-1-benzyl-3-((cyclopentyloxy)[(3-methoxyphenyl)sulfonyl]amino)-2-hydroxypropyl]carbamate] | < 1 | ≤ 100 |  |
| N#CCNc1cccc(S(=O)(=O)N(CC(O)C(Cc2ccccc2)NC(=O)OC2COC3OCCC23)OC2CCCC2)c1 [Compound 86, (3R,3aS,6aR)hexahydrofuro[2,3-b]furan-3-yl N-(1S,2R)-1-benzyl-3-[(3-[(cyanomethyl)amino]phenylsulfonyl)(cyclopentyloxy)amino]-2-hydroxypropylcarbamate and (3S,3aR,6aS)hexahydrofuro[2,3-b]furan-3-yl N-(1S,2R)-1-benzyl-3-[(3-[(cyanomethyl)amino]phenylsulfonyl)(cyclopentyloxy)amino]-2-hydroxypropylcarbamate] | < 1 | ≤ 100 |  |
| COc1ccc(S(=O)(=O)N(C[C@@H](O)[C@H](Cc2ccccc2)NC(=O)OC(C)(C)C)OC2CCOCC2)cc1 [Compound 18, tert-butyl N-(1S,2R)-1-benzyl-2-hydroxy-3-[[(4-methoxyphenyl)sulfonyl](tetrahydro-2H-pyran-4-yloxy)amino]propylcarbamate] | 1 to 10 | > 1000 |  |
| CC(=O)Nc1nc2ccc(S(=O)(=O)N(C[C@@H](O)[C@H](Cc3ccccc3)NC(=O)OC3COCOC3)OC3CCCC3)cc2s1 [Compound 114] | < 1 | ≤ 100 |  |
| Nc1cccc(S(=O)(=O)N(C[C@@H](OP(=O)(O)O)[C@H](Cc2ccccc2)NC(=O)O[C@H]2CO[C@H]3OCC[C@H]32)OC2CCCC2)c1 [Compound 100, Phosphate ester of (3R,3aS,6aR)hexahydrofuro[2,3-b]furan-3-yl N-(1S,2R)-3-[[(3-aminophenyl)sulfonyl](cyclopentyloxy)amino]-1-benzyl-2-hydroxypropylcarbamate] | 10 to 100 | 100 to 500 |  |
| CCC(C)ON(C[C@@H](O)[C@H](Cc1ccccc1)NC(=O)OC1CCOC1)S(=O)(=O)c1ccc(OC)cc1 (stereo partly drawn) [Compound 67, (3S)tetrahydro-3-furanyl N-((1S,2R)-1-benzyl-3-sec-butoxy[(4-methoxyphenyl)sulf-onyl]amino-2-hydroxypropyl)carbamate] | < 1 | 100 to 500 |  |
| O=C(N[C@@H](Cc1ccccc1)[C@H](O)CN(OC1CCOCC1)S(=O)(=O)c1ccc(O)cc1)O[C@H]1CO[C@H]2OCC[C@H]21 [Compound 149, (3R,3aS,6aR)hexahydrofuro[2,3-b]furan-3-yl 1-benzyl-2-hydroxy-3-[[(4-hydroxyphenyl)sulfonyl](tetrahydro-2H-pyran-4-yloxy)amino]propylcarbamate] | < 1 | ≤ 100 |  |
| CN(C(=O)OC(C)(C)C)c1cccc(S(=O)(=O)N(C[C@@H](O)[C@H](Cc2ccccc2)NC(=O)O[C@H]2CO[C@H]3OCC[C@H]32)OC2CCCC2)c1 [Compound 128] | > 100 | > 1000 |  |
| COc1ccc(S(=O)(=O)N(C[C@@H](O)[C@H](Cc2ccccc2)NC(=O)O[C@H]2CO[C@@H]3OCC[C@@H]32)OC2CCCC2)cc1 [Compound 116] | > 100 | 500 to 1000 |  |
